# Measurements taken from patent publication US20130109682A1, “CYCLIC ETHER COMPOUNDS USEFUL AS KINASE INHIBITORS” (NOVARTIS AG, priority 2010, published 2013).
# How the values were obtained:
# Assay type in all cases: biochemical
# PIM1 = PIM1 (Homo sapiens, UniProt P11309); experiment: KinaseGlo Pim1 ATP depletion assay
# Experimental: KinaseGlo Pim1 ATP Depletion Assay
# The activity of PIM1 is measured using a luciferase-luciferin based ATP detection reagent to quantify ATP depletion resulting from kinase-catalyzed phosphoryl transfer to a peptide substrate. Compounds to be tested are dissolved in 100% DMSO and directly distributed into white 384-well plates at 0.5 μA per well. To start the reaction, 10 μA of 5 nM Pim1 kinase and 80 μM BAD peptide (RSRHSSYPAGT-OH) in assay buffer (50 mM HEPES pH 7.5, 5 mM MgCl2, 1 mM DTT, 0.05% BSA) is added into each well. After 15 minutes, 10 μl of 40 μM ATP in assay buffer is added. Final assay concentrations are 2.5 nM PIM1, 20 μM ATP, 40 μM BAD peptide and 2.5% DMSO. The reaction is performed until approximately 50% of the ATP is depleted, then stopped with the addition of 20 μA KinaseGlo Plus (Promega Corporation) solution. The stopped reaction is incubated for 10 minutes and the remaining ATP detected via luminescence on the Victor2 (Perkin Elmer). […] IC50, the half maximal inhibitory concentration, represents the concentration of a test compound that is required for 50% inhibition of its target in vitro.
# PIM2 = PIM2 (Homo sapiens, UniProt Q9P1W9); experiment: KinaseGlo Pim2 ATP depletion assay
# PIM2, sequence (Q9P1W9 whole entry): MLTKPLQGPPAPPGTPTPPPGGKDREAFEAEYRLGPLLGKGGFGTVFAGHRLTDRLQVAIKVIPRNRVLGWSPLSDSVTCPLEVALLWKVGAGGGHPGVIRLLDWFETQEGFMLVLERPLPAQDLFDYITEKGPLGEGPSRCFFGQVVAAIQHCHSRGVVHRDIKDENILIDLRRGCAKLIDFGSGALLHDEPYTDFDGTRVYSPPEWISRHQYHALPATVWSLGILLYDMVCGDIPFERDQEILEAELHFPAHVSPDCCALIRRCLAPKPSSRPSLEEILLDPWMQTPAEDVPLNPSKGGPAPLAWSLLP
# Experimental: KinaseGlo Pim2 ATP Depletion Assay
# The activity of PIM2 is measured using a luciferase-luciferin based ATP detection reagent to quantify ATP depletion resulting from kinase-catalyzed phosphoryl transfer to a peptide substrate. Compounds to be tested are dissolved in 100% DMSO and directly distributed into white 384-well plates at 0.5 piper well. To start the reaction, 10 μl of 10 nM Pim2 kinase and 20 μM BAD peptide (RSRHSSYPAGT-OH) in assay buffer (50 mM HEPES pH 7.5, 5 mM MgCl2, 1 mM DTT, 0.05% BSA) is added into each well. After 15 minutes, 10 μl of 8 μM ATP in assay buffer is added. Final assay concentrations are 5 nM PIM2, 4 μM ATP, 10 μM BAD peptide and 2.5% DMSO. The reaction is performed until approximately 50% of the ATP is depleted, then stopped with the addition of 20 μl KinaseGlo Plus (Promega Corporation) solution. The stopped reaction is incubated for 10 minutes and the remaining ATP detected via luminescence on the Victor2 (Perkin Elmer).
# PIM3 = PIM3 (Homo sapiens, UniProt Q86V86); experiment: KinaseGlo Pim3 ATP depletion assay
# Experimental: KinaseGlo Pim3 ATP Depletion Assay
# The activity of PIM3 is measured using a luciferase-luciferin based ATP detection reagent to quantify ATP depletion resulting from kinase-catalyzed phosphoryl transfer to a peptide substrate. Compounds to be tested are dissolved in 100% DMSO and directly distributed into white 384-well plates at 0.5 μl per well. To start the reaction, 10 μl of 10 nM Pim3 kinase and 200 μM BAD peptide (RSRHSSYPAGT-OH) in assay buffer (50 mM HEPES pH 7.5, 5 mM MgCl2, 1 mM DTT, 0.05% BSA) is added into each well. After 15 minutes, 10 μl of 80 μM ATP in assay buffer is added. Final assay concentrations are 5 nM […], 40 μM ATP, 100 μM BAD peptide and 2.5% DMSO. The reaction is performed until approximately 50% of the ATP is depleted, then stopped by the addition of 20 μl KinaseGlo Plus (Promega Corporation) solution. The stopped reaction is incubated for 10 minutes and the remaining ATP detected via luminescence on the Victor2 (Perkin Elmer).
# GSK3β = GSK3β (Homo sapiens, UniProt P49841); experiment: GSK3β ATP depletion assay; settings: read-out: GSK3b IC50
# GSK3β, sequence (P49841 whole entry, species assumed): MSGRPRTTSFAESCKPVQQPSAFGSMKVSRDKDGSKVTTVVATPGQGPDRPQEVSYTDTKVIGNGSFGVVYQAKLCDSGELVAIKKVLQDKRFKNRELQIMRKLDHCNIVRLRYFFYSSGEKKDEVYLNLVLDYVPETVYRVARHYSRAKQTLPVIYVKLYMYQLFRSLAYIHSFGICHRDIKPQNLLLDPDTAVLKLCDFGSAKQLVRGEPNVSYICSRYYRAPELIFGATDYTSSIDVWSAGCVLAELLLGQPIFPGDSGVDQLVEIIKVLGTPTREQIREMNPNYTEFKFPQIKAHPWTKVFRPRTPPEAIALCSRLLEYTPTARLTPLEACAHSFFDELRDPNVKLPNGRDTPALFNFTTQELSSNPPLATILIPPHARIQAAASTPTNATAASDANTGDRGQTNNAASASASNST
# Experimental: GSK3β ATP Depletion Assay
# The activity of GSK3β is measured using a luciferase-luciferin based ATP detection reagent to quantify ATP depletion resulting from kinase-catalyzed phosphoryl transfer to a peptide substrate. Compounds to be tested are dissolved in 100% DMSO and directly distributed into white 384-well plates at 0.5 μl per well. To start the reaction, 10 μl of 10 nM GSK3B kinase and 20 μM biotinylated CREB peptide ([…](pS)YR-NH2) in assay buffer (50 mM TRIS pH 7.5, 15 mM MgCl2, 1 mM DTT, 0.1% BSA) is added into each well. After 15 minutes, 10 μl of 2 μM ATP in assay buffer is added. Final assay concentrations are 5 nM GSK3B, […], 10 μM b-CREB peptide and 2.5% DMSO. The reaction is performed until approximately 50% of the ATP is depleted, then stopped with the addition of 20 μl KinaseGlo (Promega Corporation) solution. The stopped reaction is incubated for 10 minutes and the remaining ATP is detected via luminescence on the Victor2 (Perkin Elmer).
# PIM1, sequence (P11309 whole entry): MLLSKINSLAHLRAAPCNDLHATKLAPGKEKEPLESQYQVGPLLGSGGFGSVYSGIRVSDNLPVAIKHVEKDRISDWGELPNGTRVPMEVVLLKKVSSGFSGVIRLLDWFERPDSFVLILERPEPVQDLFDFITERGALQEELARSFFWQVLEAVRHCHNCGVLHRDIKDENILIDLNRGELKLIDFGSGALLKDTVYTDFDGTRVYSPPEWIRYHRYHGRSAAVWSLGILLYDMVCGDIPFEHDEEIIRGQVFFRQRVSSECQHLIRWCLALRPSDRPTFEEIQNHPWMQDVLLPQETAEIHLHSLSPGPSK
IC50 (PIM1) [nM],IC50 (PIM2) [nM],IC50 (PIM3) [nM],IC50 (GSK3β) [nM],SMILES
8370,> 25000,10800,> 25000,"O=C(Nc1cnccc1[C@@H]1C[C@H](O)[C@]2(O)CCCC[C@@H]2O1)c1c[nH]cc(-c2ccccc2)c1=O [Example 171, N-(4-((2S,4S,4aR,8aS)-4,4a-dihydroxyoctahydro-2H-chromen-2-yl)pyridin-3-yl)-4-oxo-5-phenyl-1,4-dihydropyridine-3-carboxamide]"
78,10300,847,3120,"O=C(Nc1cnccc1[C@@]1(C(F)(F)F)C[C@@H](O)CCO1)c1ccc(F)c(-c2c(F)cccc2F)n1 [Example 53, 6-(2,6-difluorophenyl)-5-fluoro-N-(4-((2R,4S)-4-hydroxy-2-(trifluoromethyl)tetrahydro-2H-pyran-2-yl)pyridin-3-yl)picolinamide]"
54,7360,617,3720,"O=C(Nc1cnccc1[C@@]1(C(F)(F)F)CCCCO1)c1ccc(F)c(-c2c(F)cccc2F)n1 [Example 51, (R)-6-(2,6-difluorophenyl)-5-fluoro-N-(4-(2-(trifluoromethyl)tetrahydro-2H-pyran-2-yl)pyridin-3-yl)picolinamide]"
2.2,3.1,3.1,21,"Nc1cnc(-c2c(F)cccc2F)nc1C(=O)Nc1cnccc1[C@H]1C[C@@H](O)[C@@]2(O)CCCC[C@H]2O1 [Example 172, 5-amino-2-(2,6-difluorophenyl)-N-(4-((2R,4R,4aS,8aR)-4,4a-dihydroxyoctahydro-2H-chromen-2-yl)pyridin-3-yl)pyrimidine-4-carboxamide]"
1,10,4,703,"C[C@@H]1O[C@H](c2ccncc2NC(=O)c2ccc(F)c(-c3c(F)cccc3F)n2)C[C@H](O)[C@]1(O)CO [Example 19, 6-(2,6-difluorophenyl)-N-(4-((2S,4S,5R,6S)-4,5-dihydroxy-5-(hydroxymethyl)-6-methyltetrahydro-2H-pyran-2-yl)pyridin-3-yl)-5-fluoropicolinamide]"
68,1270,338,4310,"N#CC[C@H]1O[C@@H](c2ccncc2NC(=O)c2ccc(C#N)c(-c3c(F)cccc3F)n2)CC[C@@H]1O [Example 45, 5-cyano-N-(4-((2R,5S,6R)-6-(cyanomethyl)-5-hydroxytetrahydro-2H-pyran-2-yl)pyridin-3-yl)-6-(2,6-difluorophenyl)picolinamide]"
8,103,32,2560,"C[C@H]1O[C@@H](c2ccncc2NC(=O)c2ccc(F)c(-c3c(F)cccc3F)n2)C[C@@H](O)[C@@]1(O)CO [Example 20, 6-(2,6-difluorophenyl)-N-(4-((2R,4R,5S,6R)-4,5-dihydroxy-5-(hydroxymethyl)-6-methyltetrahydro-2H-pyran-2-yl)pyridin-3-yl)-5-fluoropicolinamide]"
29,4220,124,695,"O=C(Nc1cnccc1[C@]1(C(F)(F)F)CCCCO1)c1ccc(F)c(-c2c(F)cccc2F)n1 [Example 52, (S)-6-(2,6-difluorophenyl)-5-fluoro-N-(4-(2-(trifluoromethyl)tetrahydro-2H-pyran-2-yl)pyridin-3-yl)picolinamide]"
28,2130,110,196,"O=C(Nc1cnccc1[C@]1(C(F)(F)F)C[C@H](O)CCO1)c1ccc(F)c(-c2c(F)cccc2F)n1 [Example 50, 6-(2,6-difluorophenyl)-5-fluoro-N-(4-((2S,4R)-4-hydroxy-2-(trifluoromethyl)tetrahydro-2H-pyran-2-yl)pyridin-3-yl)picolinamide]"
1,10,4,187,"O=C(Nc1cnccc1[C@H]1C[C@@H](O)[C@H](O)[C@@H](CF)O1)c1ccc(F)c(-c2c(F)cccc2F)n1 [Example 282, 6-(2,6-difluorophenyl)-5-fluoro-N-(4-((2R,4R,5S,6S)-6-(fluoromethyl)-4,5-dihydroxytetrahydro-2H-pyran-2-yl)pyridin-3-yl)picolinamide]"
–,6640,890,–,"NC(=O)C[C@H]1O[C@@H](c2ccncc2NC(=O)c2ccc(F)c(-c3c(F)cccc3F)n2)C[C@@H](O)[C@@H]1O [Example 159, N-(4-((2R,4R,5S,6R)-6-(2-amino-2-oxoethyl)-4,5-dihydroxytetrahydro-2H-pyran-2-yl)pyridin-3-yl)-6-(2,6-difluorophenyl)-5-fluoropicolinamide]"
27,1420,73,210,"O=C(Nc1cnccc1[C@]1(C(F)(F)F)C[C@H](O)C=CO1)c1ccc(F)c(-c2c(F)cccc2F)n1 [Example 49, 6-(2,6-difluorophenyl)-5-fluoro-N-(4-((2S,4S)-4-hydroxy-2-(trifluoromethyl)-3,4-dihydro-2H-pyran-2-yl)pyridin-3-yl)picolinamide]"
1450,11800,1320,3580,"CC[C@H]1O[C@@H](c2ccncc2NC(=O)c2c[nH]cc(-c3ccccc3)c2=O)C[C@@H](O)[C@@H]1O [Example 170, N-(4-((2R,4R,5S,6R)-6-ethyl-4,5-dihydroxytetrahydro-2H-pyran-2-yl)pyridin-3-yl)-4-oxo-5-phenyl-1,4-dihydropyridine-3-carboxamide]"
1,9,3,1140,"N#C[C@H]1OC(c2ccncc2NC(=O)c2ccc(F)c(-c3c(F)cccc3F)n2)=C[C@@H](O)[C@@H]1O [Example 21, N-(4-((2R,3S,4R)-2-cyano-3,4-dihydroxy-3,4-dihydro-2H-pyran-6-yl)pyridin-3-yl)-6-(2,6-difluorophenyl)-5-fluoropicolinamide]"
72,19600,1770,3620,"O=C(Nc1cnccc1[C@@]1(C(F)(F)F)C[C@@H](O)C=CO1)c1ccc(F)c(-c2c(F)cccc2F)n1 [Example 48, 6-(2,6-difluorophenyl)-5-fluoro-N-(4-((2R,4R)-4-hydroxy-2-(trifluoromethyl)-3,4-dihydro-2H-pyran-2-yl)pyridin-3-yl)picolinamide]"
